Test results as given in ChEMBL document CHEMBL3526157, “Unique metabolic pathway of [(14)C]lenvatinib after oral administration to male cynomolgus monkey” (Drug Metab Dispos, 2012).
One block for each compound: values may come before it.

Key:
Type in all cases: ADME, organism-based, Macaca fascicularis
Set-up in all cases: dose 30 mg/kg, route oral
[1] = tested on: Cynomolgus monkey; test: Drug metabolism in cynomolgus monkey assessed as parent compound formation at 30 mg/kg, po administered on day 1, 2 and 4 by radio-LC/MS analysis; conditions: in vivo
[2] = tested on: Plasma; test: Drug metabolism in cynomolgus monkey assessed as parent compound level in plasma at 30 mg/kg, po administered on day 1, 2 and 4 by radio-LC/MS analysis; conditions: in vivo
[3] = Drug metabolism in cynomolgus monkey assessed as parent compound level in liver at 30 mg/kg, po administered on day 1, 2 and 4 by radio-LC/MS analysis; conditions: in vivo
[4] = Drug metabolism in cynomolgus monkey assessed as 3,3'-disulfanediylbis(2-(6-carbamoyl-7-methoxyquinolin-4-ylamino)propanoic acid) metabolite level in urine at 30 mg/kg, po administered on day 1, 2 and 4 by radio-LC/MS analysis; conditions: in vivo
[5] = tested on: Cynomolgus monkey; test: Drug metabolism in cynomolgus monkey assessed as 2-(6-carbamoyl-7-methoxyquinolin-4-ylamino)-3-((2-(6-carbamoyl-7-methoxyquinolin-4-ylamino)-3-(carboxymethylamino)-3-oxopropyl)disulfanyl)propanoic acid formation at 30 mg/kg, po administered on day 1, 2 and 4 by radio-LC/MS analysis; conditions: in vivo
[6] = Drug metabolism in cynomolgus monkey assessed as 3,3'-disulfanediylbis(2-(6-carbamoyl-7-methoxyquinolin-4-ylamino)propanoic acid) metabolite level in bile at 30 mg/kg, po administered on day 1, 2 and 4 by radio-LC/MS analysis; conditions: in vivo
[7] = tested on: Cynomolgus monkey; test: Drug metabolism in cynomolgus monkey assessed as 2-(6-carbamoyl-7-methoxyquinolin-4-ylamino)-3-mercaptopropanoic acid formation at 30 mg/kg, po administered on day 1, 2 and 4 by radio-LC/MS analysis; conditions: in vivo
[8] = Drug metabolism in cynomolgus monkey assessed as 2-(6-carbamoyl-7-methoxyquinolin-4-ylamino)-3-(6-carbamoyl-7-methoxyquinolin-4-ylthio)propanoic acid metabolite level in bile at 30 mg/kg, po administered on day 1, 2 and 4 by radio-LC/MS analysis; conditions: in vivo
[9] = tested on: Cynomolgus monkey; test: Drug metabolism in cynomolgus monkey assessed as 2-(6-carbamoyl-7-methoxyquinolin-4-ylamino)-3-(6-carbamoyl-7-methoxyquinolin-4-ylthio)propanoic acid formation at 30 mg/kg, po administered on day 1, 2 and 4 by radio-LC/MS analysis; conditions: in vivo
[10] = Drug metabolism in cynomolgus monkey assessed as parent compound level in bile at 30 mg/kg, po administered on day 1, 2 and 4 by radio-LC/MS analysis; conditions: in vivo
[11] = Drug metabolism in cynomolgus monkey assessed as 2-(6-carbamoyl-7-methoxyquinolin-4-ylamino)-3-mercaptopropanoic acid metabolite level in liver at 30 mg/kg, po administered on day 1, 2 and 4 by radio-LC/MS analysis; conditions: in vivo
[12] = Drug metabolism in cynomolgus monkey assessed as 2-(6-carbamoyl-7-methoxyquinolin-4-ylamino)-3-((2-(6-carbamoyl-7-methoxyquinolin-4-ylamino)-3-(carboxymethylamino)-3-oxopropyl)disulfanyl)propanoic acid metabolite level in urine at 30 mg/kg, po administered on day 1, 2 and 4 by radio-LC/MS analysis; conditions: in vivo
[13] = Drug excretion in cynomolgus monkey feces assessed as unchanged level of drug at 30 mg/kg, po administered on day 1, 2 and 4 by radio-LC/MS analysis; conditions: read-out: Drug excretion
[14] = Drug metabolism in cynomolgus monkey assessed as 2-(6-carbamoyl-7-methoxyquinolin-4-ylamino)-3-mercaptopropanoic acid metabolite level in bile at 30 mg/kg, po administered on day 1, 2 and 4 by radio-LC/MS analysis; conditions: in vivo
[15] = tested on: Cynomolgus monkey; test: Drug metabolism in cynomolgus monkey assessed as 2-(6-carbamoyl-7-methoxyquinolin-4-ylthio)acetic acid formation at 30 mg/kg, po administered on day 1, 2 and 4 by radio-LC/MS analysis; conditions: in vivo
[16] = tested on: Cynomolgus monkey; test: Drug metabolism in cynomolgus monkey assessed as 3,3'-disulfanediylbis(2-(6-carbamoyl-7-methoxyquinolin-4-ylamino)propanoic acid) formation at 30 mg/kg, po administered on day 1, 2 and 4 by radio-LC/MS analysis; conditions: in vivo
[17] = Drug metabolism in cynomolgus monkey assessed as 2-(6-carbamoyl-7-methoxyquinolin-4-ylamino)-3-(6-carbamoyl-7-methoxyquinolin-4-ylthio)propanoic acid metabolite level in liver at 30 mg/kg, po administered on day 1, 2 and 4 by radio-LC/MS analysis; conditions: in vivo
[18] = Drug metabolism in cynomolgus monkey assessed as 5-(3-(6-carbamoyl-7-methoxyquinolin-4-ylthio)-1-(carboxymethylamino)-1-oxopropan-2-ylamino)-[…]-5-oxopentanoic acid metabolite level in liver at 30 mg/kg, po administered on day 1, 2 and 4 by radio-LC/MS analysis; conditions: in vivo
[19] = Drug metabolism in cynomolgus monkey assessed as 2-(6-carbamoyl-7-methoxyquinolin-4-ylamino)-3-(6-carbamoyl-7-methoxyquinolin-4-ylthio)propanoic acid metabolite level in urine at 30 mg/kg, po administered on day 1, 2 and 4 by radio-LC/MS analysis; conditions: in vivo
[20] = tested on: Cynomolgus monkey; test: Drug metabolism in cynomolgus monkey assessed as 5-(3-(6-carbamoyl-7-methoxyquinolin-4-ylthio)-1-(carboxymethylamino)-1-oxopropan-2-ylamino)-[…]-5-oxopentanoic acid formation at 30 mg/kg, po administered on day 1, 2 and 4 by radio-LC/MS analysis; conditions: in vivo
[21] = Drug metabolism in cynomolgus monkey assessed as 2-(6-carbamoyl-7-methoxyquinolin-4-ylthio)acetic acid metabolite level in urine at 30 mg/kg, po administered on day 1, 2 and 4 by radio-LC/MS analysis; conditions: in vivo
[22] = tested on: Cynomolgus monkey; test: Drug metabolism in cynomolgus monkey treated with 30 mg/kg, po of [14C]lenvatinib administered on day 1, 2 and 4 by radio-LC/MS analysis; conditions: in vivo
[23] = tested on: Cynomolgus monkey; test: Drug retention time in cynomolgus monkey treated with 30 mg/kg, po of [14C]lenvatinib administered on day 1, 2 and 4 by radio-LC/MS analysis; conditions: in vivo

Drug metabolism [1]: metabolite_detected
Drug metabolism [2]: metabolite_detected
Drug metabolism [3]: metabolite_detected
Drug metabolism [4]: metabolite_detected
Drug metabolism [5]: metabolite_detected
Drug metabolism [6]: metabolite_detected
Drug metabolism [7]: metabolite_detected
Drug metabolism [8]: metabolite_detected
Drug metabolism [9]: metabolite_detected
Drug metabolism [10]: metabolite_detected
Drug metabolism [11]: metabolite_detected
Drug metabolism [12]: metabolite_detected
dose excreted [13]: 51%
Drug metabolism [14]: metabolite_detected
Drug metabolism [15]: metabolite_detected
Drug metabolism [16]: metabolite_detected
Drug metabolism [17]: metabolite_detected
Drug metabolism [18]: metabolite_detected
Drug metabolism [19]: metabolite_detected
Drug metabolism [20]: metabolite_detected
Drug metabolism [21]: metabolite_detected
Structure (SMILES): COc1cc2n[14cH]cc(Oc3ccc(NC(=O)NC4CC4)c(Cl)c3)c2cc1C(N)=O.CS(=O)(=O)O

Drug metabolism [22]: metabolite_detected
Retention_time [23]: 17.1 min
Structure (SMILES): COc1cc2nccc(N[C@@H](CSc3ccnc4cc(OC)c(C(N)=O)cc34)C(=O)O)c2cc1C(N)=O

Drug metabolism [22]: metabolite_detected
Retention_time [23]: 14.1 min
Structure (SMILES): COc1cc2nccc(N[C@@H](CSSC[C@H](Nc3ccnc4cc(OC)c(C(N)=O)cc34)C(=O)NCC(=O)O)C(=O)O)c2cc1C(N)=O

Drug metabolism [22]: metabolite_detected
Retention_time [23]: 14.5 min
Structure (SMILES): COc1cc2nccc(N[C@@H](CS)C(=O)O)c2cc1C(N)=O
